Results: patent US10745397B2, “1-Substituted 1,2,3,4-tetrahydro-1,7-naphthyridin-8-amine derivatives and their use as EP4 receptor antagonists” (TAKEDA PHARMACEUTICAL COMPANY LIMITED, priority 2015, dated 2020)

What was measured:
human EP4 receptor = molecular target: T1, human EP4 receptor (Homo sapiens, UniProt P35408); test: hEP4 radioligand binding assay ([3H] PGE2 competitive binding, membrane fractions); conditions: 1 nM [3H] PGE2; for inhibition at 0.3 µM: 300 nM compound; for inhibition at 1 µM: 1 μM compound
T1 construct: expressed in transfected cells; host or cells: FreeStyle293 (HEK293F) cells, transient transfection with pcDNA3.1(+), total membrane fraction
T1 sequence (P35408 whole entry): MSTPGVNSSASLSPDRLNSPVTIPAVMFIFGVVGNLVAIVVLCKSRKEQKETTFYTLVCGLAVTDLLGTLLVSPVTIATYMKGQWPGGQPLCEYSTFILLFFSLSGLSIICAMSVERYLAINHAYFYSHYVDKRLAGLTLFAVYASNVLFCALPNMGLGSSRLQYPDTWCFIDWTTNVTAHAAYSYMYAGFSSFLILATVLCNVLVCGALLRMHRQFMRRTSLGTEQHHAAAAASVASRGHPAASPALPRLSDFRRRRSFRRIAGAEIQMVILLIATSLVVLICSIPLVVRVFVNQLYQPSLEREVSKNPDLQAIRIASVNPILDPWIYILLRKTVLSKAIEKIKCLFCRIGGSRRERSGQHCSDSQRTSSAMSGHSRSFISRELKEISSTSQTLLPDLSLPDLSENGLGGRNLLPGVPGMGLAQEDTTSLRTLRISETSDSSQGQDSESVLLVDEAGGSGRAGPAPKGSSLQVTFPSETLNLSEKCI
Description: The full-length coding sequences for human EP1 (NM_000955), human EP2 (NM_000956), human EP3 (NM_198717) and human EP4 (NM_000958) were cloned into pcDNA3.1(+) vector (Life Technologies, CA, USA). In order to prepare overexpressed EP 1-4 membrane in Freestyle293 cells (Life Technologies, CA, USA), the pcDNA3.1(+) vector encoding a cDNA of the relevant gene was transiently transfected into FreeStyle293 cells using 293Fectin (Life Technologies, CA, USA) according to the manufacturer instruction manual. After 2 days, cultured cells were centrifuged (1,000×g, 10 min, 4° C.) and pellets homogenized by a probe sonicator (Sonics vibracell, Sonics and Materials Inc., USA; 31% Amp, 5 sec pulse, Imin interval, 4 cycles) in ice-cold 50 mM Tris-HCl buffer (pH 7.5 at 25° C.) containing 0.5 mM EDTA, 250 mM Sucrose and 10 mM MgCl2. Cell homogenates were centrifuged (890×g, 10 min, 4° C.), and the supernatant was recovered. Total membrane fractions were isolated by ultracentrifugation (140,000×g, 60 min, 4° C.). Pellets were re-suspended in the same buffer, and stored at −80° C. until use. The protein concentration in homogenate was determined with the BCA Protein Assay Kit (Pierce Biotechnology, Inc., IL, USA) according to the manufacturer protocol.
The binding affinity of the compounds was evaluated using a competitive radioligand binding assay which measured the specific binding of [3H] PGE2 to the human EP4 receptor. Briefly, varying concentrations of NCEs were incubated with cell membrane fractions generated HEK293F cells transiently transfected with human EP4 receptor as described above. Each reaction consisted of 10 μg membrane protein and NCE in 50 mM Tris-HCl, pH-6.0 by NaOH, 10 mM MgCl2 and 0.5 mM EDTA assay buffer. Radioligand, [3H] PGE2 (American Radiochemicals Inc. Specific Activity 180 Ci/mmol), at a final of 1 nM was added to each reaction where the final assay volume was 200 μL and concentration of DMSO was adjusted to 1%. Appropriate controls included total binding in the assay (vehicle control) and control for non-specific binding. Non-specific binding was evaluated by incubating the hEP4 protein with 10 μM unlabeled PGE2 under the same assay conditions as NCEs. The reaction was incubated at room temperature for 2 hours and terminated by harvesting the reaction contents to a PEI coated GF/C filter plate (PerkinElmer). The plate was washed four times with cold 50 mM Tris-HCl, pH-7.5 wash buffer and dried at 50° C. for 2 hours or at 37° C. overnight. [3H] PGE2 bound to the protein was quantified by the addition of 25 μL of Microscint PS (PerkinElmer) and plate was read on MicroBeta2 liquid Scintillation and luminescence counter (PerkinElmer). Data was analyzed using GraphPad Prism 5 (GraphPad Software Inc., San Diego, Calif.) where non-specific binding was normalized to 0% specific binding of [3]PGE2 and vehicle control (DMSO) was normalized to 100% specific binding of [3]PGE2. Binding affinity of NCEs, Ki, was generated using One site—Fit Ki equation in GraphPad Prism 5.

[1] = molecular target: T2, hEP4 (C6 glioma cells overexpressing hEP4) (Homo sapiens, UniProt P35408); test: hEP4 cell based assay (cAMP), inhibition of PGE2 induced cAMP, HTRF; conditions: 1 μM compound, PGE2 at EC80
T2 construct: host or cells: C6 glioma cells overexpressing hEP4
T2 sequence (P35408 whole entry): as above
Procedure: The functional assay for hEP4 activation and inhibition was carried out via the quantitative determination of agonist, PGE2, induced cAMP response using HTRF in a competitive immunoassay (Cisbio dynamic 2 kit). NCEs at varying concentrations were evaluated for inhibition of PGE2 induced increase in cAMP. Briefly, C6 glioma cells overexpressing hEP4 (Takeda) were cultured in DMEM (low glucose, pyruvate), 10% FBS (Gibco) and PenStep. The cells were harvested on the day of the assay, washed with HBSS+10 mM HEPES (pH 7.4)+0.1% BSA buffer and pre-incubated with varying concentrations of NCE. Each reaction contained 7000 cells and NCEs in HBSS+10 mM HEPES+0.1% BSA assay buffer along with PDE inhibitors IBMX and Ro 20-1724 (final concentration of each inhibitor […]). Following 15 min pre-incubation, the cells were treated with EC80 concentration of agonist PGE2 for 30 min to induce cAMP. Final volume of the assay was 6 μL and DMSO concentration was maintained at 1%. The reaction was terminated with the addition of cAMP labeled with the dye d2 in lysis buffer according to manufacturers' protocol. This was followed by the addition of the anti-cAMP antibody labeled with Cryptate according to the manufacturers' protocol. The reaction was incubated at room temperature in dark for 45 min and the plate was evaluated for fluorescence at 665 nm (FRET) and 620 nm (cryptate emission) on a Flexstation III microplate reader (Molecular Devices, Sunnyvale, Calif.) Ex max: 313 nm; Em1: 620 nm; Em2: 665 nm. Data was analyzed using GraphPad Prism 5 (GraphPad Software Inc., San Diego, Calif.) where cells treated with agonist (EC80) was normalized to 0% inhibition of hEP4 and cells treated with buffer (no agonist) was normalized to 100% inhibition of hEP4. IC50 of NCEs was generated using non-linear regression—Log(inhibitor) vs. response equation in GraphPad Prism 5.

Compound	inhibition at 0.3 µM (human EP4 receptor)	inhibition at 1 µM (human EP4 receptor)	inhibition at 1 µM [1]
COC(=O)c1ccc([C@H](C)Nc2ncnc3c2N(Cc2cccc(Cl)c2)C(=O)CO3)cc1 [Example A46, methyl 4-[(1S)-1-[[5-[(3-chlorophenyl)methyl]-6-oxo-pyrimido[4,5-b][1,4]oxazin-4-yl]amino]ethyl]benzoate]	12%		
COC(=O)c1ccc(C2(Nc3nccc4c3N(Cc3ccc(F)c(F)c3)C(=O)CO4)CC2)cc1 [Example A47, methyl 4-[1-[[4-[(3,4-difluorophenyl)methyl]-3-oxopyrido[4,3-b][1,4]oxazin-5-yl]amino]cyclopropyl]benzoate]	12%		
COC(=O)c1ccc([C@H](C)Nc2nccc3c2N(C(=O)c2ccc(C(F)(F)F)cc2)CCO3)cc1 [Example A48, methyl 4-[(1S)-1-[[4-[4-(trifluoromethyl)benzoyl]-2,3-dihydropyrido[4,3-b][1,4]oxazin-5-yl]amino]ethyl]benzoate]	28%		
COc1ccc(CNc2nccc3c2N(Cc2ccc(F)c(F)c2)CCO3)cc1 [Example A49, 4-[(3,4-difluorophenyl)methyl]-N-[(4-methoxyphenyl)methyl]-2,3-dihydropyrido[4,3-b][1,4]oxazin-5-amine]	17%		
Cc1cccnc1CNc1nccc2c1N(Cc1ccc(F)c(F)c1)CCO2 [Example A50, 4-[(3,4-difluorophenyl)methyl]-N-[(3-methyl-2-pyridyl)methyl]-2,3-dihydropyrido[4,3-b][1,4]oxazin-5-amine]	26%		
Fc1ccc(CN2CCOc3ccnc(NCC4CCCCC4)c32)cc1F [Example A51, N-(cyclohexylmethyl)-4-[(3,4-difluorophenyl)methyl]-2,3-dihydropyrido[4,3-b][1,4]oxazin-5-amine]		29%	
C[C@H](Nc1nccc2c1N(Cc1ccccc1)CCO2)c1ccc(C(=O)O)cc1 [Example B1, 4-[(1S)-1-[(4-Benzyl-2,3-dihydropyrido[4,3-b][1,4]oxazin-5-yl)amino]ethyl]benzoic acid]	93%		100%
C[C@H](Nc1nccc2c1N(CCOc1ccc(F)cc1)CCO2)c1ccc(C(=O)O)cc1 [Example B3, 4-[(1S)-1-[[4-[2-(4-Fluorophenoxy)ethyl]-2,3-dihydropyrido[4,3-b][1,4]oxazin-5-yl]amino]ethyl]benzoic acid]	81%		90%
C[C@H](Nc1nccc2c1N(Cc1ccc(C(F)(F)F)cc1)CCO2)c1ccc(C(=O)O)cc1 [Example B5, 4-[(1S)-1-[[4-[[4-(trifluoromethyl)phenyl]methyl]-2,3-dihydropyrido[4,3-b][1,4]oxazin-5-yl]amino]ethyl]benzoic acid]	74%		100%
C[C@H](Nc1nccc2c1N(Cc1ccc(F)c(F)c1)CCO2)c1ccc(C(=O)O)cc1 [Example B6, 4-[(1S)-1-[[4-[(3,4-difluorophenyl)methyl]-2,3-dihydropyrido[4,3-b][1,4]oxazin-5-yl]amino]ethyl]benzoic acid]	89%		100%
C[C@H](Nc1nccc2c1N(Cc1ccc(Cl)cc1)CCO2)c1ccc(C(=O)O)cc1 [Example B7, 4-[(1S)-1-[[4-[(4-chlorophenyl)methyl]-2,3-dihydropyrido[4,3-b][1,4]oxazin-5-yl]amino]ethyl]benzoic acid]	99%		100%
C[C@H](Nc1nccc2c1N(Cc1ccccn1)CCO2)c1ccc(C(=O)O)cc1 [Example B27, 4-[(1S)-1-[[4-(2-pyridylmethyl)-2,3-dihydropyrido[4,3-b][1,4]oxazin-5-yl]amino]ethyl]benzoic acid]	42%		
C[C@H](Nc1nccc2c1N(Cc1cccnc1)CCO2)c1ccc(C(=O)O)cc1 [Example B28, 4-[(1S)-1-[[4-(3-pyridylmethyl)-2,3-dihydropyrido[4,3-b][1,4]oxazin-5-yl]amino]ethyl]benzoic acid]	49%		
C[C@H](Nc1nccc2c1N(Cc1cccc(Cl)c1)CCN2C)c1ccc(C(=O)O)cc1 [Example B34, 4-[(1S)-1-[[4-[(3-chlorophenyl)methyl]-1-methyl-2,3-dihydropyrido[3,4-b]pyrazin-5-yl]amino]ethyl]benzoic acid]	42.5%		
C[C@H](Nc1nccc2c1N(Cc1ccc(C(F)(F)F)cc1)CCN2C)c1ccc(C(=O)O)cc1 [Example B35, 4-[(1S)-1-[[1-methyl-4-[[4-(trifluoromethyl)phenyl]methyl]-2,3-dihydropyrido[3,4-b]pyrazin-5-yl]amino]ethyl]benzoic acid]	42.4%		
C[C@H](Nc1nccc2c1N(Cc1ccc(C(F)(F)F)cc1)C(=O)CS2)c1ccc(C(=O)O)cc1 [Example B36, 4-[(1S)-1-[[3-oxo-4-[[4-(trifluoromethyl)phenyl]methyl]pyrido[4,3-b][1,4]thiazin-5-yl]amino]ethyl]benzoic acid]	49%		
C[C@H](Nc1ncnc2c1N(Cc1cccc(Cl)c1)CCO2)c1ccc(C(=O)O)cc1 [Example B38, 4-[(1S)-1-[[5-[(3-chlorophenyl)methyl]-6,7-dihydropyrimido[4,5-b][1,4]oxazin-4-yl]amino]ethyl]benzoic acid]	88%		
Cc1noc(C)c1CN1CCOc2ccnc(N[C@@H](C)c3ccc(C(=O)O)cc3)c21 [Example B41, 4-[(1S)-1-[[4-[(3,5-dimethylisoxazol-4-yl)methyl]-2,3-dihydropyrido[4,3-b][1,4]oxazin-5-yl]amino]ethyl]benzoic acid]	47%		
C[C@H](Nc1nccc2c1N(Cc1ccc(F)c(F)c1)C(=O)CS2)c1ccc(C(=O)O)cc1 [Example B42, 4-[(1S)-1-[[4-[(3,4-difluorophenyl)methyl]-3-oxopyrido[4,3-b][1,4]thiazin-5-yl]amino]ethyl]benzoic acid]	0.3%	26%	
C[C@H](Nc1nccc2c1N(Cc1cccc(Cl)c1)C(=O)CS2)c1ccc(C(=O)O)cc1 [Example B43, 4-[(1S)-1-[[4-[(3-chlorophenyl)methyl]-3-oxopyrido[4,3-b][1,4]thiazin-5-yl]amino]ethyl]benzoic acid]	10%		
C[C@H](Nc1ncc(C2CC2)c2c1N(Cc1cccc(C(F)(F)F)c1)CCO2)c1ccc(C(=O)O)cc1 [Example B47, 4-[(1S)-1-[[8-cyclopropyl-4-[[3-(trifluoromethyl)phenyl]methyl]-2,3-dihydropyrido[4,3-b][1,4]oxazin-5-yl]amino]ethyl]benzoic acid]	60%		
